Measured values published in patent US10774074B2, “2-(1-heteroarylpiperazin-4-yl)methyl-1,4-benzodioxane derivatives as alpha2C antagonists” (ORION CORPORATION, priority 2015, dated 2020).
Counter-ions that a name gives are not always drawn.

How the values were obtained:
human alpha2C receptors = target: T1, human alpha2C receptors (Homo sapiens, UniProt P18825); assay: Determination of alpha2C antagonistic activity in vitro (FLIPR calcium assay, CHO cells); type: cell-based; conditions: for Kb: Kb calculated with the Cheng-Prusoff equation from IC50, adrenaline as agonist, CHO cells, human alpha2C, read-out: Alpha 2C Adrenaline Kb; for IC50: antagonism of adrenaline stimulation, CHO cells stably transfected with human alpha2C receptor and Gα16, intracellular calcium (FLIPR), read-out: Alpha 2C Adrenaline IC50
T1 construct: host or cells: CHO cells, cotransfected with pCEP-Gα16
T1 sequence (P18825 1-462): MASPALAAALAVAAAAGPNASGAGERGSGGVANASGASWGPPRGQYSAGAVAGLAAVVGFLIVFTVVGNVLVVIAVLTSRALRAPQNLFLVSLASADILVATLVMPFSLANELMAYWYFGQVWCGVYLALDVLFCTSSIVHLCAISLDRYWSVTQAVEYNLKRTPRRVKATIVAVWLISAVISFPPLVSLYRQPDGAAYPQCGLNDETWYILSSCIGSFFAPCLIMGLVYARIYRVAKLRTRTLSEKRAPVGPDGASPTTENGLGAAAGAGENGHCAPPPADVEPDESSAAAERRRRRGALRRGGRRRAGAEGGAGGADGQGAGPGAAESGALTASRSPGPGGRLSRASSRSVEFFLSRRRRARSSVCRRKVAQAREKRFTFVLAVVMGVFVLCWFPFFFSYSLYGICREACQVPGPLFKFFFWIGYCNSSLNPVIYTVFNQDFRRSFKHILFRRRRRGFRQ
Procedure: (§1) EXPERIMENT 1: Determination of alpha2A and alpha2C Antagonistic Activity In Vitro
(§2) Chinese hamster ovary (CHO) cells stably transfected with human alpha2A or alpha2C receptors (University of Turku, Finland) were cotransfected with the expression vector pCEP-Gα16 (Molecular Devices, CA, USA) were used in this experiment. The cells were maintained at 37° C. in a 5% CO2/95% air atmosphere. The cells were cultured in HAM F-12 medium supplemented with 10% FCS, 25 mM HEPES, 100 IU/ml penicillin, 100 µg/ml streptomycin, 500 μg/ml geneticin and 240 μg/ml hygromycin B. The cells were subcultured twice weekly with 0.25% trypsin and 1 mM EDTA. The subculture ratio was 1:5-1:20. The growth medium was changed every 2 or 3 days. All cell culture reagents were from Gibco. The day before the experiment the cells were plated into black-walled, clear bottom 384-well plates at a density of 10,000 cells/well.
(§3) The growth medium was removed and the cells were incubated with the test compounds and the FLIPR Calcium 6 Assay reagent (Molecular Devices, CA, USA) for 2 h at 37° C. in dark. The test compounds (concentrations in cells 100 pM-10 μM) were dissolved in Probenecid-Ringer consisting of 150 mM NaCl, 3 mM KCl, 1.2 mM MgCl2, 1 mM CaCl2, 5 mM glucose, 20 mM HEPES and 2.5 mM probenecid (pH 7.4 adjusted with 1.0 M NaOH). The osmolarity was adjusted to 322 milliosmoles with Osmostat® OM-6020 osmometer (DIC Kyoto Daiichi Kagagu Co. Ltd, Japan). […] All experiments were performed at 37° C. For agonism measurements the test compounds dissolved in Probenecid-Ringer were applied by FLIPR Tetra at 15 s time point. In order to determine antagonism, the cells were stimulated either with 100 nM adrenaline or noradrenaline and the test compounds were added to the cells 2 h before the experiment with the FLIPR Calcium 6 Assay reagent. […] Typically, there were four replicates at each concentration and six different dose levels. For example, if the number of plates from which results were obtained was three, 72 (4*6*3) wells were thus measured to construct dose-response relationship. The samples were excited at 485 nm and emission was detected at 525 nm with a 515 nm cut-off filter. The minimum fluorescence value subtracted from the maximum value for each well was used in the calculations. ScreenWorks version 4.0 software was used for analyzing the results. Fitting of the antagonist dose-response results was performed with the free Hill equation and the IC50 values were fitted with IDBS XE software using model 200: y=(A+(B/(1+((x/C)^D)))), where A is the curve maximum, B the curve minimum and C equals the EC50 value. D is slope factor (Hill). Kb was calculated with the Cheng-Prusoff equation Kb=A/((B/C)+1), where A is the IC50 of antagonist, B the concentration of agonist and C the EC50 of the agonist.

human alpha2A receptors = target: T2, human alpha2A receptors (Homo sapiens, UniProt P08913); assay: Determination of alpha2A antagonistic activity in vitro (FLIPR calcium assay, CHO cells); type: cell-based; conditions: for Kb: Kb calculated with the Cheng-Prusoff equation from IC50, adrenaline as agonist, CHO cells, human alpha2A, read-out: Alpha 2A Adrenaline Kb; for IC50: antagonism of adrenaline stimulation, CHO cells stably transfected with human alpha2A receptor and Gα16, intracellular calcium (FLIPR), read-out: Alpha 2A Adrenaline IC50
T2 construct: host or cells: CHO cells, cotransfected with pCEP-Gα16
T2 sequence (P08913 1-465): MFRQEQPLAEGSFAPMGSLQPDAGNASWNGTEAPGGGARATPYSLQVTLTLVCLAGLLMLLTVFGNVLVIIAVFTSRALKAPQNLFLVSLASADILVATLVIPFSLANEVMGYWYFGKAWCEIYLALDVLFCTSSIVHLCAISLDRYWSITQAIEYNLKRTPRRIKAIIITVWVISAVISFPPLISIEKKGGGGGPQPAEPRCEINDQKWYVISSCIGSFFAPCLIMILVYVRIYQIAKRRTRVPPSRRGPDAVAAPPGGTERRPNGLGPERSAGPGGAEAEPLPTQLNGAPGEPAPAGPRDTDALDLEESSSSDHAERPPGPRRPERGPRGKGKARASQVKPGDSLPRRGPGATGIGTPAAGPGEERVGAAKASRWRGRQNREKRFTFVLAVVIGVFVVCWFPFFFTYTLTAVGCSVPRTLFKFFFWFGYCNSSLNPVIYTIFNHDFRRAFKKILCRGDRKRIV
Procedure: as §1, §2, §3

| Compound | Kb (human alpha2C receptors) [nM] | IC50 (human alpha2C receptors) [nM] | Kb (human alpha2A receptors) [nM] | IC50 (human alpha2A receptors) [nM] |
| --- | --- | --- | --- | --- |
| Cc1c(N2C(=O)CC(C)(C)C2=O)c(N2CCN(C[C@H]3COc4ccccc4O3)CC2)nn1C [Compound of example 1, (S)-1-(3-(4-((2,3-Dihydrobenzo[b][1,4]dioxin-2-yl)methyl)piperazin-1-yl)-1,5-dimethyl-1H-pyrazol-4-yl)-3,3-dimethylpyrrolidine-2,5-dione] | < 0.1 | < 0.01 | – | – |
| Cc1c(N2C(=O)c3ccccc3C2=O)c(N2CCN(C[C@H]3COc4ccccc4O3)CC2)nn1C [Compound of example 2, (S)-2-(3-(4-((2,3-Dihydrobenzo[b][1,4]dioxin-2-yl)methyl)piperazin-1-yl)-1,5-dimethyl-1H-pyrazol-4-yl)isoindoline-1,3-dione] | < 0.1 | < 0.01 | < 0.004 | < 0.1 |
| Cc1nc(C#N)c(N2CCN(C[C@H]3COc4ccccc4O3)CC2)o1 [Compound of example 3, (S)-5-(4-((2,3-Dihydrobenzo[b][1,4]dioxin-2-yl)methyl)piperazin-1-yl)-2-methyloxazole-4-carbonitrile] | 912 | 91.9 | > 449 | > 10000 |
| Cc1c(N2CCC2=O)c(N2CCN(C[C@H]3COc4ccccc4O3)CC2)nn1C [Compound of example 4, (S)-1-(3-(4-((2,3-Dihydrobenzo[b][1,4]dioxin-2-yl)methyl)piperazin-1-yl)-1,5-dimethyl-1H-pyrazol-4-yl)azetidin-2-one] | 0.13 | 0.01 | 217 | – |
| Cc1c(N2CCOC2=O)c(N2CCN(C[C@H]3COc4ccccc4O3)CC2)nn1C [Compound of example 5, (S)-3-(3-(4-((2,3-Dihydrobenzo[b][1,4]dioxin-2-yl)methyl)piperazin-1-yl)-1,5-dimethyl-1H-pyrazol-4-yl)oxazolidin-2-one] | 1 | 0.1 | 206 | 4590 |
| Cc1c(N2CC(C)(C)NC2=O)c(N2CCN(C[C@H]3COc4ccccc4O3)CC2)nn1C [Compound of example 6, (S)-1-(3-(4-((2,3-Dihydrobenzo[b][1,4]dioxin-2-yl)methyl)piperazin-1-yl)-1,5-dimethyl-1H-pyrazol-4-yl)-4,4-dimethylimidazolidin-2-one] | < 0.1 | < 0.01 | – | – |
| Cc1c(N2CC(C)(C)N(C)C2=O)c(N2CCN(C[C@H]3COc4ccccc4O3)CC2)nn1C [Compound of example 7, (S)-1-(3-(4-((2,3-Dihydrobenzo[b][1,4]dioxin-2-yl)methyl)piperazin-1-yl)-1,5-dimethyl-1H-pyrazol-4-yl)-3,4,4-trimethylimidazolidin-2-one] | < 0.1 | < 0.01 | – | – |
| COCc1scnc1N1CCN(C[C@H]2COc3ccccc3O2)CC1 [Compound of example 8, (S)-4-(4-((2,3-Dihydrobenzo[b][1,4]dioxin-2-yl)methyl)piperazin-1-yl)-5-(methoxymethyl)thiazole] | < 0.1 | < 0.01 | 88 | 1970 |
| Cc1c(N2CCNC2=O)c(N2CCN(C[C@H]3COc4ccccc4O3)CC2)nn1C [Compound of example 9, (S)-1-(3-(4-((2,3-Dihydrobenzo[b][1,4]dioxin-2-yl)methyl)piperazin-1-yl)-1,5-dimethyl-1H-pyrazol-4-yl)imidazolidin-2-one] | 0.55 | 0.06 | > 449 | > 10000 |
| c1ccc(-n2nccc2N2CCN(C[C@H]3COc4ccccc4O3)CC2)nc1 [Compound of example 10, (S)-1-((2,3-Dihydrobenzo[b][1,4]dioxin-2-yl)methyl)-4-(1-(pyridin-2-yl)-1H-pyrazol-5-yl)piperazine] | 1.14 | 0.113 | 350 | 7810 |
| COCc1c(N2CCN(C[C@H]3COc4ccccc4O3)CC2)nn(C)c1C [Compound of example 11, (S)-1-((2,3-Dihydrobenzo[b][1,4]dioxin-2-yl)methyl)-4-(4-(methoxymethyl)-1,5-dimethyl-1H-pyrazol-3-yl)piperazine] | 1.62 | 0.165 | 306 | 6810 |
| CCOC(=O)c1c(N2CCN(C[C@H]3COc4ccccc4O3)CC2)nn(C)c1C [Compound of example 12, (S)-Ethyl 3-(4-((2,3-dihydrobenzo[b][1,4]dioxin-2-yl)methyl)piperazin-1-yl)-1,5-dimethyl-1H-pyrazole-4-carboxylate] | 2.13 | 0.21 | 120 | 2680 |
| Cc1c(C(C)(C)O)c(N2CCN(C[C@H]3COc4ccccc4O3)CC2)nn1C [Compound of example 13, (S)-2-(3-(4-((2,3-Dihydrobenzo[b][1,4]dioxin-2-yl)methyl)piperazin-1-yl)-1,5-dimethyl-1H-pyrazol-4-yl)propan-2-ol] | 2.93 | 0.3 | 43 | 960 |
| Cc1c(N2CCCC2=O)c(N2CCN(C[C@H]3COc4ccccc4O3)CC2)nn1C [Compound of example 14, (S)-1-(3-(4-((2,3-Dihydrobenzo[b][1,4]dioxin-2-yl)methyl)piperazin-1-yl)-1,5-dimethyl-1H-pyrazol-4-yl)pyrrolidin-2-one] | 0.29 | 0.03 | 382 | 8520 |
| Cc1c(N2CCN(C)C2=O)c(N2CCN(C[C@H]3COc4ccccc4O3)CC2)nn1C [Compound of example 15, (S)-1-(3-(4-((2,3-Dihydrobenzo[b][1,4]dioxin-2-yl)methyl)piperazin-1-yl)-1,5-dimethyl-1H-pyrazol-4-yl)-3-methylimidazolidin-2-one] | 1.64 | 0.17 | > 449 | > 10000 |
| Cc1nc(N2CCN(C[C@H]3COc4ccccc4O3)CC2)c(N2C(=O)CC(C)(C)C2=O)s1 [Compound of example 32, (S)-1-(4-(4-((2,3-Dihydrobenzo[b][1,4]dioxin-2-yl)methyl)piperazin-1-yl)-2-methylthiazol-5-yl)-3,3-dimethylpyrrolidine-2,5-dione hydrochloride] | < 0.1 | < 0.01 | – | – |
| (S)-4-(4-((2,3-Dihydrobenzo[b][1,4]dioxin-2-yl)methyl)piperazin-1-yl)-N-(pyridin-4-yl)-1,2,5-thiadiazol-3-amine dihydrochloride [Compound of example 35] | – | – | 275 | 6130 |
